Tests used:
human orexin-2 receptor [1] = molecular target: T1, human orexin-2 receptor (Homo sapiens (Human), UniProt O43614); assay: radioligand binding assay, orexin-2 receptor (membranes from CHO cells); details: CHO cell membranes, read-out: hOX2 hKi
Method: (§1) The utility of the compounds in accordance with the present invention as orexin receptor OX1R and/or OX2R antagonists may be readily determined without undue experimentation by methodology well known in the art, including the “FLIPR Ca^2+ Flux Assay” (Okumura et al., Biochem. Biophys. Res. Comm. 280:976-981, 2001). In a typical experiment the OX1 and OX2 receptor antagonistic activity of the compounds of the present invention was determined in accordance with the following experimental method. For intracellular calcium measurements, Chinese hamster ovary (CHO) cells expressing the rat orexin-1 receptor or the human orexin-2 receptor, are grown in Iscove's modified DMEM containing 2 mM L-glutamine, […], 1% hypoxanthine-thymidine supplement, 100 U/ml penicillin, 100 ug/ml streptomycin and 10% heat-inactivated fetal calf serum (FCS). The cells are seeded at 20,000 cells/well into Becton-Dickinson black 384-well clear bottom sterile plates coated with poly-D-lysine. All reagents were from GIBCO-Invitrogen Corp. The seeded plates are incubated overnight at 37° C. and 5% CO2. Ala-6,12 human orexin-A as the agonist is prepared as a 1 mM stock solution in 1% bovine serum albumin (BSA) and diluted in assay buffer (HBSS containing 20 mM HEPES, 0.1% BSA and 2.5 mM probenecid, pH7.4) for use in the assay at a final concentration of 70 pM. Test compounds are prepared as 10 mM stock solution in DMSO, then diluted in 384-well plates, first in DMSO, then assay buffer. On the day of the assay, cells are washed 3 times with 100 ul assay buffer and then incubated for 60 min (37° C., 5% CO2) in 60 ul assay buffer containing 1 uM Fluo-4AM ester, 0.02% pluronic acid, and 1% BSA. The dye loading solution is then aspirated and cells are washed 3 times with 100 ul assay buffer. 30 ul of that same buffer is left in each well. Within the Fluorescent Imaging Plate Reader (FLIPR, Molecular Devices), test compounds are added to the plate in a volume of 25 ul, incubated for 5 min and finally 25 ul of agonist is added. Fluorescence is measured for each well at 1 second intervals for 5 minutes and the height of each fluorescence peak is compared to the height of the fluorescence peak induced by 70 pM Ala-6,12 orexin-A with buffer in place of antagonist. […] Alternatively, compound potency can be assessed by a radioligand binding assay (described in Bergman et. al. Bioorg. Med. Chem. Lett. 2008, 18, 1425-1430) in which the inhibition constant (Ki) is determined in membranes prepared from CHO cells expressing either the OX1 or OX2 receptor. The intrinsic orexin receptor antagonist activity of a compound which may be used in the present invention may be determined by these assays.

rat orexin-1 receptor = rat orexin-1 receptor (Rattus norvegicus (Rat), UniProt P56718); assay: FLIPR Ca2+ Flux Assay, CHO cells expressing rat orexin-1 receptor; assay type: cell-based; details: 70 pM Ala-6,12 orexin-A agonist, read-out: hOX1R FLIPR IC50;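 further: concentration giving 50% inhibition of the agonist-induced calcium response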
Method: as §1

human orexin-2 receptor [2] = molecular target: T1, human orexin-2 receptor; assay: FLIPR Ca2+ Flux Assay, CHO cells expressing human orexin-2 receptor; assay type: cell-based; details: 70 pM Ala-6,12 orexin-A agonist, read-out: hOX2R FLIPR IC50
Method: as §1

OX1 receptor (hOX1) = OX1 receptor (hOX1) (Homo sapiens, UniProt O43613); assay: radioligand binding assay, orexin-1 receptor (membranes from CHO cells); details: CHO cell membranes, read-out: hOX1 hKi
Method: In a typical experiment the OX1 and OX2 receptor antagonistic activity of the compounds of the present invention was determined in accordance with the following experimental method. For intracellular calcium measurements, Chinese hamster ovary (CHO) cells expressing the rat orexin-1 receptor or the human orexin-2 receptor, are grown in Iscove's modified DMEM containing 2 mM L-glutamine, […], 1% hypoxanthine-thymidine supplement, 100 U/ml penicillin, 100 ug/ml streptomycin and 10% heat-inactivated fetal calf serum (FCS). The cells are seeded at 20,000 cells/well into Becton-Dickinson black 384-well clear bottom sterile plates coated with poly-D-lysine. All reagents were from GIBCO-Invitrogen Corp. The seeded plates are incubated overnight at 37° C. and 5% CO2. Ala-6,12 human orexin-A as the agonist is prepared as a 1 mM stock solution in 1% bovine serum albumin (BSA) and diluted in assay buffer (HBSS containing 20 mM HEPES, 0.1% BSA and 2.5 mM probenecid, pH7.4) for use in the assay at a final concentration of 70 pM. Test compounds are prepared as 10 mM stock solution in DMSO, then diluted in 384-well plates, first in DMSO, then assay buffer. On the day of the assay, cells are washed 3 times with 100 ul assay buffer and then incubated for 60 min (37° C., 5% CO2) in 60 ul assay buffer containing 1 uM Fluo-4AM ester, 0.02% pluronic acid, and 1% BSA. The dye loading solution is then aspirated and cells are washed 3 times with 100 ul assay buffer. 30 ul of that same buffer is left in each well. Within the Fluorescent Imaging Plate Reader (FLIPR, Molecular Devices), test compounds are added to the plate in a volume of 25 ul, incubated for 5 min and finally 25 ul of agonist is added. Fluorescence is measured for each well at 1 second intervals for 5 minutes and the height of each fluorescence peak is compared to the height of the fluorescence peak induced by 70 pM Ala-6,12 orexin-A with buffer in place of antagonist. […] Alternatively, compound potency can be assessed by a radioligand binding assay (described in Bergman et. al. Bioorg. Med. Chem. Lett. 2008, 18, 1425-1430) in which the inhibition constant (Ki) is determined in membranes prepared from CHO cells expressing either the OX1 or OX2 receptor. The intrinsic orexin receptor antagonist activity of a compound which may be used in the present invention may be determined by these assays.

rat orexin-1 receptor, sequence (P56718 whole entry): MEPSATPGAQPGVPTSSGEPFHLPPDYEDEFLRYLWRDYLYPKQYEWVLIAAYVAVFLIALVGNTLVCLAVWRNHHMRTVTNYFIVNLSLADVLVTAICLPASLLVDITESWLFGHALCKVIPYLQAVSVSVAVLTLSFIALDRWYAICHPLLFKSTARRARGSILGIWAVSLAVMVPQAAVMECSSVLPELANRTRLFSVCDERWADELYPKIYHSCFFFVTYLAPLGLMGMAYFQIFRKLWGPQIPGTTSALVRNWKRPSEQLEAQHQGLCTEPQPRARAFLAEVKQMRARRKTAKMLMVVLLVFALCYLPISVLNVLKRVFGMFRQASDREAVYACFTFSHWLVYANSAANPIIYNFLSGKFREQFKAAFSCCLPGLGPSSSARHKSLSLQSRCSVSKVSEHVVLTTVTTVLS
T1 sequence (O43614 whole entry): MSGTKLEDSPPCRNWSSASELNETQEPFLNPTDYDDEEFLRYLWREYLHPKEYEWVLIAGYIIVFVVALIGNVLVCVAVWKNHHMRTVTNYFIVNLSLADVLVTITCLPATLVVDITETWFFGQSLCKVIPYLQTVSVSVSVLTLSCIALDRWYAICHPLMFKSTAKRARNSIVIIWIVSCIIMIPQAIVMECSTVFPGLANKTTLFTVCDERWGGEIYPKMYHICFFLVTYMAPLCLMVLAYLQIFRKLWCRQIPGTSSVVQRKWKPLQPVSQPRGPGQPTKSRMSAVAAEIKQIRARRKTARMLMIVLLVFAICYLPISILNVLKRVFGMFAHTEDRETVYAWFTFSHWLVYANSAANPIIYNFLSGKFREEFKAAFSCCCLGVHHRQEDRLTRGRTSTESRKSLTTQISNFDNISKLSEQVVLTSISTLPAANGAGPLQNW

`C[C@@H]1CC[C@@H](Oc2cc(C#N)ccn2)CN1C(=O)c1ccc(F)cc1-n1nccn1` [Example 8, 2-{[(3R,6R)-1-{[4-fluoro-2-(2H-1,2,3-triazol-2-yl)phenyl]carbonyl}-6-methylpiperidin-3-yl]oxy}pyridine-4-carbonitrile] gave a Ki (human orexin-2 receptor [1]) of 3.5 nM, an IC50 (rat orexin-1 receptor) greater than 10000 nM and an IC50 (human orexin-2 receptor [2]) of 29 nM. The Ki (OX1 receptor (hOX1)) was 2910 nM.
For `Cc1ccc(C(=O)N2C[C@H](Oc3cc(C#N)ccn3)CC[C@H]2C)c(-n2nccn2)c1` [Example 9, 2-{[(3R,6R)-6-methyl-1-{[4-methyl-2-(2H-1,2,3-triazol-2-yl)phenyl]carbonyl}piperidin-3-yl]oxy}pyridine-4-carbonitrile], the Ki (human orexin-2 receptor [1]) was 3.7 nM, the IC50 (rat orexin-1 receptor) was 7150 nM and the IC50 (human orexin-2 receptor [2]) was 22 nM. For the same compound, the Ki (OX1 receptor (hOX1)) was 1250 nM.
For `C[C@@H]1CC[C@@H](Oc2cc(C#N)ccn2)CN1C(=O)c1ccsc1-n1nccn1` [Example 10, 2-{[(3R,6R)-6-methyl-1-{[2-(2H-1,2,3-triazol-2-yl)thiophen-3-yl]carbonyl}piperidin-3-yl]oxy}pyridine-4-carbonitrile], the Ki (human orexin-2 receptor [1]) was 5.9 nM, the IC50 (rat orexin-1 receptor) was greater than 10000 nM and the IC50 (human orexin-2 receptor [2]) was 29 nM. It also gave a Ki (OX1 receptor (hOX1)) of 3570 nM.
In the case of `C[C@@H]1CC[C@@H](Oc2cc(C#N)ccn2)CN1C(=O)c1sccc1-n1nccn1` [Example 14, 2-{[(3R,6R)-6-methyl-1-{[3-(2H-1,2,3-triazol-2-yl)thiophen-2-yl]carbonyl}piperidin-3-yl]oxy}pyridine-4-carbonitrile], the Ki (human orexin-2 receptor [1]) is reported as 15 nM, the IC50 (rat orexin-1 receptor) is reported as greater than 10000 nM and the IC50 (human orexin-2 receptor [2]) is reported as 65 nM. The Ki (OX1 receptor (hOX1)) was 5340 nM.
With `C[C@@H]1CC[C@@H](Oc2cc(C#N)ccn2)CN1C(=O)c1cc(Br)ccc1-n1nccn1` [Example 15, 2-{[(3R,6R)-1-{[5-bromo-2-(2H-1,2,3-triazol-2-yl)phenyl]carbonyl}-6-methylpiperidin-3-yl]oxy}pyridine-4-carbonitrile] the Ki (human orexin-2 receptor [1]) was 9.1 nM, the IC50 (rat orexin-1 receptor) was 1040 nM and the IC50 (human orexin-2 receptor [2]) was 62 nM. For the same compound, the Ki (OX1 receptor (hOX1)) was 265 nM.
`COc1ccc(C(=O)N2C[C@H](Oc3cc(C#N)ccn3)CC[C@H]2C)c(-n2nccn2)n1` [Example 17, 2-{[(3R,6R)-1-{[6-methoxy-2-(2H-1,2,3-triazol-2-yl)pyridin-3-yl]carbonyl}-6-methylpiperidin-3-yl]oxy}pyridine-4-carbonitrile] showed a Ki (human orexin-2 receptor [1]) of 15 nM, an IC50 (rat orexin-1 receptor) greater than 10000 nM and an IC50 (human orexin-2 receptor [2]) of 82 nM. For the same compound, the Ki (OX1 receptor (hOX1)) was 5640 nM.
`COc1ccc(C(=O)N2C[C@H](Oc3cc(C#N)ccn3)CC[C@H]2C)c(C2CC2)n1` [Example 20, 2-({(3R,6R)-1-[(2-cyclopropyl-6-methoxypyridin-3-yl)carbonyl]-6-methylpiperidin-3-yl}oxy)pyridine-4-carbonitrile] was tested, and the Ki (human orexin-2 receptor [1]) was 11.5 nM, the IC50 (rat orexin-1 receptor) was greater than 10000 nM and the IC50 (human orexin-2 receptor [2]) was 67 nM. It also gave a Ki (OX1 receptor (hOX1)) of 12600 nM.
With `C[C@@H]1CC[C@@H](Oc2cc(C#N)ccn2)CN1C(=O)c1c(F)cccc1-n1nccn1` [Example 22, 2-{[(3R,6R)-1-{[2-fluoro-6-(2H-1,2,3-triazol-2-yl)phenyl]carbonyl}-6-methylpipeidin-3-yl]oxy}pyridine-4-carbonitrile] the Ki (human orexin-2 receptor [1]) was 3.4 nM, the IC50 (rat orexin-1 receptor) was 5750 nM and the IC50 (human orexin-2 receptor [2]) was 23 nM. For the same compound, the Ki (OX1 receptor (hOX1)) was 1790 nM.
`C[C@@H]1CC[C@@H](Oc2cc(C#N)ccn2)CN1C(=O)c1ccc(Cl)cc1-n1nccn1` [Example 29, 2-{[(3R,6R)-1-{[4-chloro-2-(2H-1,2,3-triazol-2-yl)phenyl]carbonyl}-6-methylpiperidin-3-yl]oxy}pyridine-4-carbonitrile] gave a Ki (human orexin-2 receptor [1]) of 1.3 nM, an IC50 (rat orexin-1 receptor) of 3400 nM and an IC50 (human orexin-2 receptor [2]) of 12 nM. The Ki (OX1 receptor (hOX1)) was 1100 nM.
`C[C@@H]1CC[C@@H](Oc2cc(C#N)ccn2)CN1C(=O)c1sccc1-c1ncccn1` [Example 31] showed a Ki (human orexin-2 receptor [1]) of 5.9 nM, an IC50 (rat orexin-1 receptor) greater than 10000 nM and an IC50 (human orexin-2 receptor [2]) of 38 nM. It also gave a Ki (OX1 receptor (hOX1)) of 2720 nM.
Work on `C[C@@H]1CC[C@@H](Oc2cc(C#N)ccn2)CN1C(=O)c1cccc(F)c1-c1ncccn1` [Example 33, 2-({(3R,6R)-1-[(3-fluoro-2-pyrimidin-2-ylphenyl)carbonyl]-6-methylpiperidin-3-yl}oxy)pyridine-4-carbonitrile] yielded a Ki (human orexin-2 receptor [1]) of 12.4 nM, an IC50 (rat orexin-1 receptor) greater than 10000 nM and an IC50 (human orexin-2 receptor [2]) of 52 nM. The Ki (OX1 receptor (hOX1)) was 1690 nM.
`C[C@@H]1CC[C@@H](Oc2cc(C#N)ccn2)CN1C(=O)c1ccc(F)cc1-c1ncccn1` [Example 34, 2-({(3R,6R)-1-[(4-fluoro-2-pyrimidin-2-ylphenyl)carbonyl]-6-methylpiperidin-3-yl}oxy)pyridine-4-carbonitrile] gave a Ki (human orexin-2 receptor [1]) of 3.5 nM, an IC50 (rat orexin-1 receptor) greater than 10000 nM and an IC50 (human orexin-2 receptor [2]) of 48 nM. The Ki (OX1 receptor (hOX1)) was 868 nM.
In the case of `C[C@@H]1CC[C@@H](Oc2cc(C#N)ccn2)CN1C(=O)c1cc(F)ccc1-c1ncccn1` [Example 35, 2-({(3R,6R)-1-[(5-fluoro-2-pyrimidin-2-ylphenyl)carbonyl]-6-methylpiperidin-3-yl}oxy)pyridine-4-carbonitrile], the Ki (human orexin-2 receptor [1]) is reported as 1 nM, the IC50 (rat orexin-1 receptor) is reported as 8040 nM and the IC50 (human orexin-2 receptor [2]) is reported as 31 nM. It also gave a Ki (OX1 receptor (hOX1)) of 658 nM.
Work on `C[C@@H]1CC[C@@H](Oc2cc(C#N)ccn2)CN1C(=O)c1c(F)cccc1-c1ncccn1` [Example 36, 2-({(3R,6R)-1-[(2-fluoro-6-pyimidin-2-ylphenyl)carbonl]-6-methylpiperidin-3-yl}oxy)pyridine-4-carbonitrile] yielded a Ki (human orexin-2 receptor [1]) of 2.1 nM, an IC50 (rat orexin-1 receptor) greater than 10000 nM and an IC50 (human orexin-2 receptor [2]) of 47 nM. The Ki (OX1 receptor (hOX1)) was 930 nM.

Reference: patent US20130102619A1, “2-PYRIDYLOXY-4-NITRILE OREXIN RECEPTOR ANTAGONISTS” (priority 2011, published 2013)
